Test results from US12102644B2, “Compounds and methods of promoting myelination” (Case Western Reserve University, priority 2019, dated 2024).
pEC50, pIC50: −log10 of the molar value. “Also recorded” adds a separate entry of the source.

Columns and labels:
estrogen receptor = settings: cited from earlier work
[1] = test system: sterol levels in OPCs (cholesterol biosynthesis pathway); assay: GC/MS-based sterol profiling in OPCs; assay type: cell-based, mouse; settings: 24 h treatment
[2] = test system: mouse epiblast stem cell-derived OPCs; assay: In vitro OPC differentiation assay (percentage of MBP+ oligodendrocytes, high-content imaging); assay type: cell-based; settings: for formation of MBP+ oligodendrocytes from OPCs / formation of MBP+ oligodendrocytes in combination with ketoconazole: 72 h; for formation of MBP+ oligodendrocytes from OPCs: differentiation-permissive conditions; for formation of MBP+ oligodendrocytes in combination with ketoconazole: co-treatment with ketoconazole 2.5 μM
Protocol: To rigorously assess effects of small molecule and genetic treatments on OPCs, all treatments were assayed in two batches of epiblast stem cell-derived OPCs, and key results were confirmed using mouse primary OPCs. OPCs were generated from two separate EpiSC lines, EpiSC5 (giving rise to OPC-5 OPCs) and 12901 (giving rise to OPC-1 OPCs). EpiSC-derived OPCs were obtained using in vitro differentiation protocols and culture conditions described previously. To ensure uniformity throughout all in vitro screening experiments, EpiSC-derived OPCs were sorted to purity by fluorescence activated cell sorting at passage five with conjugated CD 140a-APC (eBioscience, 17-1401; 1:80) and NG2-AF488 (Millipore, AB[…]; 1:100) antibodies. Sorted batches of OPCs were expanded and frozen down in aliquots. OPCs were thawed into growth conditions for one passage before use in further assays. Cultures were regularly tested and shown to be mycoplasma free. EpiSC-derived OPCs were grown and expanded in poly-ornithine (PO) and laminin-coated flasks with growth medium (DMEM/F12 supplemented with N2-MAX (R&D Systems), B-27 (ThermoFisher), GlutaMax (Gibco), FGF2 ([…], R&D systems, 233-FB-025) and PDGF-AA ([…], R&D systems, 233-AA-050) before harvesting for plating. The cells were seeded onto poly-D-[…]-well CellCarrier plates (PerkinElmer) coated with laminin (Sigma, L2020; 15 μg/ml) using multi-channel pipet. For the experiment, 800,000 cells/mL stock in differentiation medium (DMEM/F12 supplemented with N2-MAX and B-27) was prepared and stored on ice for 2 h. Then, 40,000 cells were seeded per well in differentiation medium and allowed to attach for 30 min before addition of drug. For dose-response testing of all molecules except sterols, a 1000× compound stock in dimethyl sulphoxide (DMSO) was added to assay plates with 0.1 μL solid pin multi-blot replicators (V & P Scientific; VP 409), resulting in a final primary screening concentration of 1×. Sterols were added to cells as an ethanol solution (0.2% final ethanol concentration). Positive control wells (ketoconazole, 2.5 μM) and DMSO vehicle controls were included in each assay plate. Cells were incubated under standard conditions (37° C., 5% CO2) for 3 days and fixed with 4% paraformaldehyde (PFA) in phosphate buffered saline (PBS) for 20 min. Fixed plates were washed with PBS (200 μL per well) twice, permeabilized with 0.1% Triton X-100 and blocked with 10% donkey serum (v/v) in PBS for 40 min. Then, cells were labelled with MBP antibodies (Abcam, ab7349; 1:200) for 16 h at 4° C. followed by detection with Alexa Fluor conjugated secondary antibodies (1:500) for 45 min. Nuclei were visualized by DAPI staining (Sigma; 1 μg/ml). During washing steps, PBS was added using a multi-channel pipet and aspiration was performed using Biotek EL406 washer dispenser (Biotek) equipped with a 96-well aspiration manifold. Plates were imaged on the Operetta High Content Imaging and Analysis system (PerkinElmer) and a set of 6 fields captured from each well resulting in an average of 1200 cells being scored per well. Analysis (PerkinElmer Harmony and Columbus software) began by identifying intact nuclei stained by DAPI; that is, those traced nuclei that were larger than 300 μm^2 in surface area. Each traced nucleus region was then expanded by 50% and cross-referenced with the […] (MBP) stain to identify oligodendrocyte nuclei, and from this the percentage of oligodendrocytes was calculated. In some experiments, the total process length of MBP^+ oligodendrocytes was calculated as previously described.

NR2C2 = assay: NR2C2-mediated NGFI-A promoter luciferase reporter; assay type: cell-based; settings: 2,2-dimethylzymosterol 5 μM
Protocol: (§1) FIGS. 6(A-D) illustrate images and graphs showing the effect of 8,9-unsaturated sterols on nuclear hormone receptors and SREBP2 activity: a) Luciferase reporter assays were used to assess if 2,2-Dimethylzymosterol (5 μM), Ketoconazole (2.5 μM), and TASIN-1 (250 nM) modulate human ERα, GR, LXRβ, NFkB, NRF2, PGR, PPARδ, PPARγ, RARα, RARγ, RXRα, RXRβ, TRα, TRβ and VDR transcriptional activity in agonist mode and ERRα, RORα and RORγ in inverse-agonist mode. […]

[3] = test system: human ERα, GR, LXRβ, NFkB, NRF2, PGR, PPARδ, PPARγ, RARα, RARγ, RXRα, RXRβ, TRα, TRβ, VDR, ERRα, RORα and RORγ; assay: Luciferase reporter assays for 18 nuclear hormone receptors; assay type: cell-based; settings: 2,2-Dimethylzymosterol 5 μM, Ketoconazole 2.5 μM, TASIN-1 250 nM
Protocol: FIGS. 6(A-D) illustrate images and graphs showing the effect of 8,9-unsaturated sterols on nuclear hormone receptors and SREBP2 activity: a) Luciferase reporter assays were used to assess if 2,2-Dimethylzymosterol (5 μM), Ketoconazole (2.5 μM), and TASIN-1 (250 nM) modulate human ERα, GR, LXRβ, NFkB, NRF2, PGR, PPARδ, PPARγ, RARα, RARγ, RXRα, RXRβ, TRα, TRβ and VDR transcriptional activity in agonist mode and ERRα, RORα and RORγ in inverse-agonist mode. Measurements are shown as percentage of positive control, n=2 replicates per condition and n=3 replicates per condition for the controls. b) Effects of sterols (T-MAS 5 μM, FF-MAS 10 μM) and small molecules (Ketoconazole 2.5 μM, TASIN-1 100 nM) on the NR2F1-mediated activation of a NGFI-A promoter driven luciferase reporter in comparison to cells containing the reporter only (Ctrl.) or untreated. n=2 replicates per condition, with triplicate measurements per replicate. c) Effects of 2,2-dimethylzymosterol (5 μM) on the NR2C2 mediated activation of a NGFI-A promoter driven luciferase reporter in comparison to cells infected with reporter only, untreated, or treated with a previously reported positive control (all-trans retinoic acid, ATRA, 5 μM). n=2 replicates per condition, with triplicate measurements per replicate. d) LSS, DHCR7, LDLR mRNA levels measured by RT-qPCR following 24 h treatment with DMSO, Mevastatin (2.5 μM), Ro 48-8071 (500 nM), Ketoconazole (2.5 μM), TASIN-1 (100 nM), or Amorolfine (100 nM). n=2 replicates, with triplicate qPCR measurements per replicate. Experiments in panels b-d are representative of two indpedendent experiments.

NR2F1 = assay: NR2F1-mediated NGFI-A promoter luciferase reporter; assay type: cell-based; settings: Ketoconazole 2.5 μM, TASIN-1 100 nM
Protocol: as §1

EBP = target: T1, EBP (Mus musculus, UniProt P70245); assay: EBP enzymatic assay (GC/MS); assay type: biochemical; settings: small molecules 10 μM, zymostenol 25 μM, 2 h
T1 construct: active EBP was obtained from mouse microsomes; from tissue
T1 sequence (P70245 1-230): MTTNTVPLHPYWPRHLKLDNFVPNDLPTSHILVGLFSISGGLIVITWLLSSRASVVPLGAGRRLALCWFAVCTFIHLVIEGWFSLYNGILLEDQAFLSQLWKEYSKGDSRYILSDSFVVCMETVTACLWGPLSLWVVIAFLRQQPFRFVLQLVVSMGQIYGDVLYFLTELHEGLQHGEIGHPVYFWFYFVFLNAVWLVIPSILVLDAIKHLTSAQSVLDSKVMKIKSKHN

[4] = test system: EpiSC-derived OPCs on microfibers; assay: Oligodendrocyte formation on electrospun microfibers; assay type: cell-based, mouse; settings: 14 days
Protocol: A 12-well plate containing Mimetex aligned scaffold (microfiber plate, AMSBIO, AMS.TECL-006-1X, Electrospun poly-L-lactide Scaffold, […] cell crown inserts) was prepared as previously described. Briefly, inserts were sterilized with 70% ethanol and washed with PBS before being coated with polyornithine and laminin. After laminin coating, 100,000 cells/mL of EpiSC-derived OPCs were plated in differentiation medium. After 24 h the media was replaced with fresh media containing small molecule treatments. Every 48 h the media was replaced with fresh compound containing media for a total of 14 days. Plates were fixed with 4% PFA, permeabilized with 0.1% Triton X-100, and blocked with 10% donkey serum (v/v) in PBS for 60 min. Plates were stained for MBP (Abcam, ab7349; 1:100) and DAPI staining (Sigma; 5 μg/ml). After staining, the inserts were moved into new 12-well plate and covered with 2 mL of PBS before imaging in Operetta high content Imaging and analysis system. Plates were imaged on the Operetta High Content Imaging and Analysis system (PerkinElmer) and a set of 8 fields captured from each well resulting in an average of 45,000 cells being scored per well. Analysis (PerkinElmer Harmony and Columbus software) identified intact nuclei stained by DAPI and calculated the MBP signal intensity per cell per well. Microfiber insert tracking images were taken using a Leica DMi8 with a 20× Dry/NA 0.40 objective. Microfiber plate inserts were mounted using Flouromount-G (SouthernBiotech) and allowed to partially harden before coverslips were added and the insert ring was removed. Confocal images were obtained on a Leica SP8 confocal scanning microscope, with 40× oil/NA 1.30 objective. Confocal stacks of 0.336 μm z-steps were taken at 1024×1024. Each fluorophore was excited sequentially and all contrast and brightness changes were applied consistently between images.

rat CYP51 = target: T2, rat CYP51 (Rattus norvegicus, UniProt Q64654); assay: biochemical
T2 sequence (Q64654 1-503): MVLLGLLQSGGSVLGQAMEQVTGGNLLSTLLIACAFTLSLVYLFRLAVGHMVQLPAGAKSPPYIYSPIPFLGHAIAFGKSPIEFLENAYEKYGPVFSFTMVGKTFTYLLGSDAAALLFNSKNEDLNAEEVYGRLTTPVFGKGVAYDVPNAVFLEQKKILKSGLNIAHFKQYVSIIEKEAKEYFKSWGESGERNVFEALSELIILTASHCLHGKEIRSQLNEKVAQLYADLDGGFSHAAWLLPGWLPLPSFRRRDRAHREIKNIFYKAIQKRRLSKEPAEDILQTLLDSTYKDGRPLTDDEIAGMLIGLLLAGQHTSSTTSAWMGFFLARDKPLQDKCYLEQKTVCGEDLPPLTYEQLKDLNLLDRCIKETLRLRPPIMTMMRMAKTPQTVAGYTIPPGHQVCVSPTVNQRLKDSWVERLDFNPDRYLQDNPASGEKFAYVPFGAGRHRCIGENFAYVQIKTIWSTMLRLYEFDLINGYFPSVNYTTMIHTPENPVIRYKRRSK

LPC-lesioned spinal cord [5] = settings: previously established by the inventors; cited from earlier work
[6] = test system: human induced pluripotent stem cell-derived cortical spheroids; assay: Sterol profiling in human iPSC-derived cortical spheroids; assay type: cell-based
LPC-lesioned spinal cord [7] = assay: LPC focal demyelination of spinal cord, remyelination histology; assay type: in vivo, mouse; settings: ifenprodil 10 mg per kg or tamoxifen 2 mg per kg, daily i.p., 8 days from day 4 after lesion

Molecule: 4-hydroxytamoxifen
- potency as estrogen receptor modulator relative to tamoxifen (estrogen receptor): 100 fold
- accumulation of sterol intermediates in OPCs (enzyme inhibition in OPCs, e.g. EBP) [1]: inhibit EBP in OPCs
- formation of MBP+ oligodendrocytes from OPCs [2]: enhance the formation of oligodendrocytes with comparable potency

Molecule: CC(C)=CCC[C@@H](C)[C@H]1CC[C@H]2C3=C(CC[C@]12C)[C@@]1(C)CC(C)(C)[C@H](O)C[C@@H]1CC3 [2,2-dimethylzymosterol]
- NR2C2-mediated reporter activation (NR2C2): ineffective
- agonist activity in NHR reporter assays [3]: no molecule showed significant agonist activity in any assay
- formation of MBP+ oligodendrocytes from OPCs [2]: maximally potent enhancers of oligodendrocyte formation among the 8,9-unsaturated sterols tested
- pEC50 ([2]; OPC-5 and OPC-1, 72 h, read-out: EC50 for enhancing oligodendrocyte formation): 5.70 to 6.00
- formation of MBP+ oligodendrocytes in combination with ketoconazole [2]: no further benefit over ketoconazole alone

Molecule: COc1ccc(S(=O)(=O)N2CCC(N3CCC(C)CC3)CC2)cc1 [TASIN-1]
- agonist activity in NHR reporter assays [3]: no molecule showed significant agonist activity in any assay
- NR2F1-mediated reporter activation (NR2F1): ineffective
- formation of MBP+ oligodendrocytes from OPCs [2]: enhanced formation of MBP^+ oligodendrocytes
- inhibition of EBP enzymatic activity (EBP): clear inhibition
- MBP+ oligodendrocyte tracking along and wrapping of microfibers [4]: significantly enhanced MBP+ oligodendrocyte tracking along and wrapping of the microfibers

Molecule: CCC(C)(C)c1ccc(CC(C)CN2C[C@@H](C)O[C@@H](C)C2)cc1 (stereo partly shown) [amorolfine, Amorolfine]
- formation of MBP+ oligodendrocytes from OPCs [2]: enhanced formation of MBP^+ oligodendrocytes
- MBP+ oligodendrocyte tracking along and wrapping of microfibers [4]: significantly enhanced MBP+ oligodendrocyte tracking along and wrapping of the microfibers

Molecule: CC(=O)N1CCN(c2ccc(OCC3COC(Cn4ccnc4)(c4ccc(Cl)cc4Cl)O3)cc2)CC1 (stereo not shown) [ketoconazole, Ketoconazole]
- pIC50 (rat CYP51): 6.15 to 6.52
- agonist activity in NHR reporter assays [3]: no molecule showed significant agonist activity in any assay
- NR2F1-mediated reporter activation (NR2F1): ineffective
- formation of MBP+ oligodendrocytes from OPCs [2]: enhanced formation of MBP^+ oligodendrocytes
- MBP+ oligodendrocyte tracking along and wrapping of microfibers [4]: significantly enhanced MBP+ oligodendrocyte tracking along and wrapping of the microfibers

Molecule: Clc1ccc(COC(Cn2ccnc2)c2ccc(Cl)cc2Cl)c(Cl)c1 (stereo not shown) [miconazole, Miconazole]
- pIC50 (rat CYP51): 6.15 to 6.52
- remyelination in mouse models of demyelination (earlier work) (LPC-lesioned spinal cord [5]): enhances remyelination in mouse models of demyelination
- 8,9-unsaturated sterol accumulation in human cortical spheroids [6]: led to 8,9-unsaturated sterol accumulation

Molecule: CC/C(=C(\c1ccccc1)c1ccc(OCCN(C)C)cc1)c1ccccc1 [tamoxifen, Tamoxifen]
- remyelination of LPC lesion (LPC-lesioned spinal cord [7]): remyelination was widespread throughout the lesion
- accumulation of sterol intermediates in OPCs (enzyme inhibition in OPCs, e.g. EBP) [1]: induced accumulation of zymostenol and zymosterol and decreased basal sterol levels; also recorded: inhibit EBP in OPCs
- formation of MBP+ oligodendrocytes from OPCs [2]: enhance the formation of oligodendrocytes with comparable potency
- formation of MBP+ oligodendrocytes in combination with ketoconazole [2]: did not enhance differentiation above levels seen for ketoconazole alone
- inhibition of EBP enzymatic activity (EBP): clear inhibition
